Results published in PubChem BioAssay (NCI).
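Results reflect a 48-hour exposure of cells in 96-well plates to compound at five concentrations. Here, GI50 denotes the concentration required for 50% inhibition of growth. TGI denotes the concentration required for complete inhibition of growth.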

What was measured:
Experiment in all cases: growth of human tumour cells (NCI), 48 h
SF-295 CNS = system: SF-295 CNS
NCI-H23 lung = system: NCI-H23 lung
A549 NSCLC = system: A549 NSCLC
SK-OV-3 ovarian = system: SK-OV-3 ovarian
KM12 colon = system: KM12 colon
COLO 205 colon = system: COLO 205 colon
HT29 colon = system: HT29 colon
LOX IMVI melanoma = system: LOX IMVI melanoma
SR leukemia = system: SR leukemia
HS 578T breast = system: HS 578T breast

Row | SMILES | TGI (SF-295 CNS) | TGI (NCI-H23 lung) | TGI (A549 NSCLC) | TGI (SK-OV-3 ovarian) | TGI (KM12 colon) | TGI (COLO 205 colon) | TGI (HT29 colon) | TGI (LOX IMVI melanoma) | TGI (SR leukemia) | GI50 (NCI-H23 lung) | GI50 (A549 NSCLC) | GI50 (SK-OV-3 ovarian) | TGI (HS 578T breast) | GI50 (KM12 colon) | GI50 (COLO 205 colon) | GI50 (HT29 colon) | GI50 (LOX IMVI melanoma) | GI50 (SR leukemia) | GI50 (SF-295 CNS) | GI50 (HS 578T breast)
1 | Cc1ccc(C2=NO[C@@H]3C(=O)N(c4ccc(Cc5ccc(N6C(=O)[C@H]7C(c8ccc(C)cc8)=NO[C@H]7C6=O)cc5)cc4)C(=O)[C@H]23)cc1 | > 100 µM | > 100 µM | > 100 µM | > 100 µM | > 100 µM | > 100 µM | > 100 µM | > 100 µM |  |  |  |  |  |  |  |  |  |  |  | 
2 | O=C1c2ccccc2C(=O)c2nc(-c3ccccc3)c(-c3ccccc3)nc21 | > 100 µM | > 100 µM | > 84.2 µM | > 100 µM | > 100 µM | > 100 µM | > 100 µM | > 56.1 µM |  |  |  |  |  |  |  |  |  |  |  | 
3 | Cn1c2cccc3nnc4cccc(c4c32)n1C | > 100 µM |  | > 100 µM |  | > 100 µM | > 100 µM | > 100 µM | > 100 µM |  |  |  |  |  |  |  |  |  |  |  | 
4 | COC(=O)C1C(=O)O[C@@H](c2ccc(OC)cc2OC)C1C(=O)OC (some centres undefined) | > 100 µM | > 100 µM | > 100 µM | > 100 µM | > 100 µM | > 100 µM | > 100 µM | > 100 µM | > 100 µM |  |  |  |  |  |  |  |  |  |  | 
5 | O=C(CC(=O)C(F)(F)F)c1csc2ccccc12 | 37 µM | > 100 µM | > 100 µM | 63.6 µM | > 100 µM | > 100 µM |  | > 100 µM | 50.1 µM |  |  |  |  |  |  |  |  |  |  | 
6 | O=C(C=Nc1ccccc1C(=O)[O-])c1cccs1.O=C(C=Nc1ccccc1C(=O)[O-])c1cccs1.[Cu+2] | > 100 µM | > 100 µM | > 100 µM | > 100 µM | > 100 µM | > 100 µM | > 100 µM | > 100 µM | > 100 µM |  |  |  |  |  |  |  |  |  |  | 
7 | CC(C)=CCC/C(C)=C/CC/C(=C/COP(=O)(OCc1ccc([N+](=O)[O-])o1)N(C)CCCCCl)C(C)(C)C (centres undefined) |  | 34.2 µM | 27.5 µM | 38.7 µM | 14.9 µM | 53.1 µM | 38.9 µM | 4.68 µM | > 100 µM | 12.6 µM | 10.9 µM | 18.1 µM | 1.06 µM | 3.63 µM | 15.9 µM | 12.5 µM | 1.28 µM | 0.128 µM |  | 
8 | CC(=O)Nc1ccc(/C=C/C(=O)c2sc(C(N)=S)nc2C)cc1 | > 100 µM | > 100 µM | > 100 µM | > 100 µM | > 100 µM | > 100 µM | > 100 µM | > 100 µM |  |  |  |  |  |  |  |  |  |  |  | 
9 | COC(=O)c1c2c(c(C)[n+]([O-])c1C)C(=O)C(NCc1ccc(F)c(F)c1)=CC2=O | 4.64 µM | 4.52 µM | 6.17 µM |  | 8.15 µM | 2.1 µM | 7.61 µM | 6.76 µM | 6.24 µM | 1.87 µM | 2.1 µM |  | 11.9 µM | 2.16 µM | 0.673 µM | 1.15 µM | 1.98 µM | 1.62 µM | 1.88 µM | 2.76 µM
10 | CC1OC(O)CC(OC(=O)c2ccccc2)C1OC(=O)c1ccccc1 (centres undefined) | > 100 µM | 30.8 µM | > 100 µM |  | > 100 µM | 80.9 µM | 42.2 µM | 23.1 µM | 37.1 µM |  |  |  |  |  |  |  |  |  |  | 
